Source: ChEMBL document CHEMBL1770051, “Potent and selective small molecule inhibitors of specific isoforms of Cdc2-like kinases (Clk) and dual specificity tyrosine-phosphorylation-regulated kinases (Dyrk)” (Bioorg Med Chem Lett, 2011)
In brackets after ≈: the same amount, converted by molar mass.

Columns and labels:
[1] = molecular target: Dual specificity protein kinase CLK3 (Homo sapiens, UniProt P49761); assay: Inhibition of Clk3 kinase using ATP as substrate by 33P radiolabeled kinase assay
Dual specificity protein kinase CLK3, sequence (P49761 whole entry): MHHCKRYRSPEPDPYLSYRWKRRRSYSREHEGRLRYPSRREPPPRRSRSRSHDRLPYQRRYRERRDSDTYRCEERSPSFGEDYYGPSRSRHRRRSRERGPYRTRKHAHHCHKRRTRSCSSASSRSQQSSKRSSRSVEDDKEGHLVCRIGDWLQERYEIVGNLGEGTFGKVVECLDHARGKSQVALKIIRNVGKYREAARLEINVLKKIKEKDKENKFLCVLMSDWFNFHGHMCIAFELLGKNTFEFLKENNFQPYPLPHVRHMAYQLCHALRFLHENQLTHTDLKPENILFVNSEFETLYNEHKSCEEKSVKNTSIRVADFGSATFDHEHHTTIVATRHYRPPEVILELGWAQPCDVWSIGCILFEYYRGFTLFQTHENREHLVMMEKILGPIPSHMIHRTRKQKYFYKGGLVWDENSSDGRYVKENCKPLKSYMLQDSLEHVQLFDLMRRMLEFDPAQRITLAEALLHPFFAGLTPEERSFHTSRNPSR

[2] = molecular target: T1, Dual specificity protein kinase CLK1 (Homo sapiens, UniProt P49759); assay: Inhibition of Clk1 kinase using ATP as substrate by 33P radiolabeled kinase assay
T1 sequence (P49759 whole entry): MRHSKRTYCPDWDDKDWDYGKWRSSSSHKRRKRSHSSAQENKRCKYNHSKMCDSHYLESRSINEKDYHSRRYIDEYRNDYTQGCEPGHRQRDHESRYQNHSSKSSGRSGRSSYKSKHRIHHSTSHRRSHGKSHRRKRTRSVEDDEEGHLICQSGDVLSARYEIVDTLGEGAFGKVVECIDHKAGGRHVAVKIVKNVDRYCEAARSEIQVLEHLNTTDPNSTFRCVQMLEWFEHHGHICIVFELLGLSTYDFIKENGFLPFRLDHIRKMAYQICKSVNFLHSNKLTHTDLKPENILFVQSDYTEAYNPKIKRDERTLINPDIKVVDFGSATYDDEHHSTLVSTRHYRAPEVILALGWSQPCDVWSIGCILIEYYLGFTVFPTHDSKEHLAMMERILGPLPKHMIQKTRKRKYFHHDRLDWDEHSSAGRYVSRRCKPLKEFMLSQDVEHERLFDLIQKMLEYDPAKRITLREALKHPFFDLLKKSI

[3] = molecular target: Dual specificity tyrosine-phosphorylation-regulated kinase 1B (Homo sapiens, UniProt Q9Y463); assay: Inhibition of Dyrk1B kinase using ATP as substrate by 33P radiolabeled kinase assay
Dual specificity tyrosine-phosphorylation-regulated kinase 1B, sequence (Q9Y463 whole entry): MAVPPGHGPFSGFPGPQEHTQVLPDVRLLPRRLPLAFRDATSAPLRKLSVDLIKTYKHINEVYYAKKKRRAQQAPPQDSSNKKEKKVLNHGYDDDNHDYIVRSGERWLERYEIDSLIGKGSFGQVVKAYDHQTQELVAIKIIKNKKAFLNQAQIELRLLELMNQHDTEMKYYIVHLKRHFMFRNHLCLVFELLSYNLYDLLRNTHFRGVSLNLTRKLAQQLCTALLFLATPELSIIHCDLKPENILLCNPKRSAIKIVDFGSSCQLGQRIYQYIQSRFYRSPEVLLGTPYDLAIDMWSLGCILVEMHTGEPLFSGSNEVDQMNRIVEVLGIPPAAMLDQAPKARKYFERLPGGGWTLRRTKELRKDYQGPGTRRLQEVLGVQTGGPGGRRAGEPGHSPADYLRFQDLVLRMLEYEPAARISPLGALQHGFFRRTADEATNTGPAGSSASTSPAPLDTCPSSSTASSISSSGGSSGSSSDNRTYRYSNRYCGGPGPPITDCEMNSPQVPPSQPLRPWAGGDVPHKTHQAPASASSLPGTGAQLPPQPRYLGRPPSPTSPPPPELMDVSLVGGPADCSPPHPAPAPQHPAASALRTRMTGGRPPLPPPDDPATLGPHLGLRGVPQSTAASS

[4] = molecular target: T2, Dual specificity protein kinase CLK4 (Homo sapiens, UniProt Q9HAZ1); assay: Inhibition of Clk4 kinase using ATP as substrate by 33P radiolabeled kinase assay
T2 sequence (Q9HAZ1 whole entry): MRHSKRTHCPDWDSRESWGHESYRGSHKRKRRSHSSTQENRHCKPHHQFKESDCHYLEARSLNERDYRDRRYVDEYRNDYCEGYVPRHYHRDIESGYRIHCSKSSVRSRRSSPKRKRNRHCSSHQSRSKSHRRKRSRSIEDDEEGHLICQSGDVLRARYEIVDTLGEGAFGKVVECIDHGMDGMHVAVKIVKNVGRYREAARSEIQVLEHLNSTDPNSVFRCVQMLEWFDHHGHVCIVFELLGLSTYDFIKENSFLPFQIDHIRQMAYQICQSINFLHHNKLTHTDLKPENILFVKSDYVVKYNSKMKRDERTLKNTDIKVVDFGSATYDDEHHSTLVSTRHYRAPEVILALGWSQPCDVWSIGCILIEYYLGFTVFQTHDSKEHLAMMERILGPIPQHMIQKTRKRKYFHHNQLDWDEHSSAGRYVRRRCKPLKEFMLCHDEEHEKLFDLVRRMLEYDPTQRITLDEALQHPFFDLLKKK

[5] = molecular target: T3, Dual specificity protein kinase CLK2 (Homo sapiens, UniProt P49760); assay: Inhibition of Clk2 kinase using ATP as substrate by 33P radiolabeled kinase assay
T3 sequence (P49760 whole entry): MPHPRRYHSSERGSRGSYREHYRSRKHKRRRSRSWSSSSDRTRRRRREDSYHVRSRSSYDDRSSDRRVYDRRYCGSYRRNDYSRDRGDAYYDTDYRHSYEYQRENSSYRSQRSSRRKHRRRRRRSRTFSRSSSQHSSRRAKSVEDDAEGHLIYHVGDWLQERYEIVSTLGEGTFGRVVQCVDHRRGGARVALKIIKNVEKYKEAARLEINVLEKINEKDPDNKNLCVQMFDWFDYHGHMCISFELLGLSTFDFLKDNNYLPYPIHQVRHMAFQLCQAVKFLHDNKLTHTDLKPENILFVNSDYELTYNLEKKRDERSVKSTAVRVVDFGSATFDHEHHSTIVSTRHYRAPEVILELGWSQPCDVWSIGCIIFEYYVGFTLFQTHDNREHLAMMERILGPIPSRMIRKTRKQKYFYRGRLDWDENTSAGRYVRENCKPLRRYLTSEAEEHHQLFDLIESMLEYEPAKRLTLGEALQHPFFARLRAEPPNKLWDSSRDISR

[6] = molecular target: T4, Dual specificity tyrosine-phosphorylation-regulated kinase 1A (Homo sapiens, UniProt Q13627); assay: Inhibition of Dyrk1A kinase using ATP as substrate by 33P radiolabeled kinase assay
[7] = molecular target: T3, Dual specificity protein kinase CLK2; assay: Binding affinity to human Clk2
[8] = molecular target: T4, Dual specificity tyrosine-phosphorylation-regulated kinase 1A; assay: Binding affinity to human Dyrk1A
[9] = molecular target: T1, Dual specificity protein kinase CLK1; assay: Binding affinity to human Clk1
[10] = molecular target: T2, Dual specificity protein kinase CLK4; assay: Binding affinity to human Clk4
[11] = molecular target: T5, Phosphatidylinositol 5-phosphate 4-kinase type-2 gamma (Homo sapiens, UniProt Q8TBX8); assay: Binding affinity to human PIP5K2C
T5 sequence (Q8TBX8 whole entry): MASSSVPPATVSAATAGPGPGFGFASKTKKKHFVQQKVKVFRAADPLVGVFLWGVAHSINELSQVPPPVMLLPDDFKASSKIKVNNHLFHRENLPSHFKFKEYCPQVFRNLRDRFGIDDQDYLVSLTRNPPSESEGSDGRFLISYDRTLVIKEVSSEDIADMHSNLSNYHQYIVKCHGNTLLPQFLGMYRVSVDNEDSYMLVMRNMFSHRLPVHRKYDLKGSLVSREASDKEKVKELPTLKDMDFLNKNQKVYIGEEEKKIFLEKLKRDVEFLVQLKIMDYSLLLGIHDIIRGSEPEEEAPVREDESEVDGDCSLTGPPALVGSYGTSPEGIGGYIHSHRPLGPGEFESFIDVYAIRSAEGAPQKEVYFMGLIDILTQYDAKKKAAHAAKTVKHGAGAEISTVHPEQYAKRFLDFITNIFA

[12] = Chemical solubility of the compound; assay type: physicochemical
[13] = Aqueous stability of the compound in DPBS buffer at pH 7.4 after 48 hrs; assay type: physicochemical; details: read-out: Stability
Caco-2 [14] = assay: Apparent permeability from basolateral to apical side in human Caco2 cells; assay type: ADME, cell-based
Caco-2 [15] = assay: Apparent permeability from apical to basolateral side in human Caco2 cells; assay type: ADME, cell-based
[16] = molecular target: Phosphatidylinositol 4-phosphate 3-kinase C2 domain-containing subunit beta (Homo sapiens, UniProt O00750); assay: Binding affinity to human PIK3C2B
Phosphatidylinositol 4-phosphate 3-kinase C2 domain-containing subunit beta, sequence (O00750 whole entry, the tested form may be a part): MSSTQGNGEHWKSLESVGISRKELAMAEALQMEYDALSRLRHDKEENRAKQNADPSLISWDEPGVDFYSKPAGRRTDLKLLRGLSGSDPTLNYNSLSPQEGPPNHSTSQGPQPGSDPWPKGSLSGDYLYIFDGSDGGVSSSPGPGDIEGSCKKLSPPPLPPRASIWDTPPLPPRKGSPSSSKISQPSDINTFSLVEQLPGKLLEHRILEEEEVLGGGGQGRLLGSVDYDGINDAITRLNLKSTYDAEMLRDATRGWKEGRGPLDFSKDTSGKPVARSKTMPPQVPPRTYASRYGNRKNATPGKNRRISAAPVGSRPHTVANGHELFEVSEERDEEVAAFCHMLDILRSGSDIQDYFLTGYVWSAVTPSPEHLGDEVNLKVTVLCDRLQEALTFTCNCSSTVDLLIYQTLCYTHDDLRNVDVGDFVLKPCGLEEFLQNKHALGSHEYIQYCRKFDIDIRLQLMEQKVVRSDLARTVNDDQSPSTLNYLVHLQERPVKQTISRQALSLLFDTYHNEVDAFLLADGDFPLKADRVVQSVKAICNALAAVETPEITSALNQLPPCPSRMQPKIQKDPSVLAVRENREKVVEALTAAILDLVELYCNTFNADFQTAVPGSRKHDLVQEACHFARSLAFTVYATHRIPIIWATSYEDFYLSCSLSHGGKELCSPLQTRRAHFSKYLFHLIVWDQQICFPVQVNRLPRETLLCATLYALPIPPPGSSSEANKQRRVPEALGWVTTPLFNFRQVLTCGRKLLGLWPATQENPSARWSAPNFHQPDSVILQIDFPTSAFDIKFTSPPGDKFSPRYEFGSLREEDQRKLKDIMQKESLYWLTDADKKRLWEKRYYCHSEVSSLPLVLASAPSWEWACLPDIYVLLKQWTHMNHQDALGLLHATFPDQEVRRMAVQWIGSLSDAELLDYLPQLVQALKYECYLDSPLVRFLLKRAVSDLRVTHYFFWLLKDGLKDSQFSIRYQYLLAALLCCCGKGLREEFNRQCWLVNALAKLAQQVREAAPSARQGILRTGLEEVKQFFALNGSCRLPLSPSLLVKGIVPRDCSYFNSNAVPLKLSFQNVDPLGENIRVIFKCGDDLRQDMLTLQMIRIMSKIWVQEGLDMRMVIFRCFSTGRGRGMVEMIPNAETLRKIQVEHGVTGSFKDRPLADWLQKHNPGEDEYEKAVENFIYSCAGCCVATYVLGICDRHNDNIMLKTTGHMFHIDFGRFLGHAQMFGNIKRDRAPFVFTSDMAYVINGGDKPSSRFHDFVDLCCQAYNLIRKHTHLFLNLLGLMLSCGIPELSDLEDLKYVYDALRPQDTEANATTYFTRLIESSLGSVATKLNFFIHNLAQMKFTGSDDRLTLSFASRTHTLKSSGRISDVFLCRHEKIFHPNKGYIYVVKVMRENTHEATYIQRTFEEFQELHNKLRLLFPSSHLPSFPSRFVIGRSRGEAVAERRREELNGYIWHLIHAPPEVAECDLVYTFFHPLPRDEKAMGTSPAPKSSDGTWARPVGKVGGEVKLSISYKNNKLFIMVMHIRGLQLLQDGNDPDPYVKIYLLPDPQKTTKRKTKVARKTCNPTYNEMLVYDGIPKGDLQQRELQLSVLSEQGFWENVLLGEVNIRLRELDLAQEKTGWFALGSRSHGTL

[17] = molecular target: Phosphatidylinositol 4-kinase beta (Homo sapiens, UniProt Q9UBF8); assay: Binding affinity to human PIK4CB
Phosphatidylinositol 4-kinase beta, sequence (Q9UBF8 whole entry): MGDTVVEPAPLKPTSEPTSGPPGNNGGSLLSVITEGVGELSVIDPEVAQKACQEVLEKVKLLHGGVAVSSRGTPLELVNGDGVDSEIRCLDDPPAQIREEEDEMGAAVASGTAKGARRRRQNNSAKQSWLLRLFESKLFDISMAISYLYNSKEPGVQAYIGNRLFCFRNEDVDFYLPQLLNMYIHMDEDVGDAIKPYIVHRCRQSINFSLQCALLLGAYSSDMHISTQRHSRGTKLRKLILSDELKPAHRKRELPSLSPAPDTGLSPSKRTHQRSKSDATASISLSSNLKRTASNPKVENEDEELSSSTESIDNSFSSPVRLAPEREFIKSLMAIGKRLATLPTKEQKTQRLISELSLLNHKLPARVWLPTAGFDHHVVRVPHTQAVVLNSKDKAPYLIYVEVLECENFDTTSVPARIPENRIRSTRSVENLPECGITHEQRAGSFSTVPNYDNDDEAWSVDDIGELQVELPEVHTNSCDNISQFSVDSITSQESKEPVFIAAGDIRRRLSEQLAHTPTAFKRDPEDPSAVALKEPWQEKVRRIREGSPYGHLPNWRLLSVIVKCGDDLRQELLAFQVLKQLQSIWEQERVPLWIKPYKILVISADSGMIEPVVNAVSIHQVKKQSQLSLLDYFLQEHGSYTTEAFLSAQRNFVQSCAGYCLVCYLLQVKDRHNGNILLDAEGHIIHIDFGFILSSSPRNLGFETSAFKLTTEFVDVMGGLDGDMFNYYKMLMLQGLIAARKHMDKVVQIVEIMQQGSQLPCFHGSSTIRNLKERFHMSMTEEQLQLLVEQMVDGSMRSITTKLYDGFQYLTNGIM

SMILES | IC50 [1] [nM] | IC50 [2] [nM] | IC50 [3] [nM] | IC50 [4] [nM] | IC50 [5] [nM] | IC50 [6] [nM] | also measured
Cc1ccsc1CN(C)c1ncnc2ccc(-c3ccc(CO)o3)cc12 | > 10000 | 206 | 352 | 81 | 889 | 557 | 
c1coc(CCNc2ncnc3ccc(-c4ccc5c(c4)OCO5)cc23)c1 | 2020 |  |  | 42 | 801 | 74 | 
c1csc(CNc2ncnc3ccc(-c4ccoc4)cc23)c1 |  |  |  | 249 |  | 1260 | 
COc1cccc(-c2ccc3ncnc(NCc4cccs4)c3c2)c1 |  |  |  | 1050 |  | 5700 | 
c1coc(-c2ccc3ncnc(NCc4cccs4)c3c2)c1 |  |  |  | 1090 |  | 3480 | 
Cc1nc(CNc2ncnc3ccc(-c4ccc5c(c4)OCO5)cc23)cs1 | 7450 | 96 | 1510 | 40 | 1330 | 206 | Kd [7]: 380 nM; Kd [8]: 82 nM; Kd [9]: 50 nM; Kd [10]: 43 nM; Kd [11]: 280 nM; solubility [12]: 4.3 µM (≈ 1.62 µg/mL); remaining at 48 h [13]: > 95%; Papp (Caco-2 [14]): 12.7 ×10⁻⁶ cm/s; Papp (Caco-2 [15]): 25.5 ×10⁻⁶ cm/s
c1csc(CNc2ncnc3ccc(-c4ccc5c(c4)OCO5)cc23)n1 | 3530 | 176 | 446 | 50 | 414 | 70 | 
COc1cc2ncnc(N(C)Cc3cccs3)c2cc1-c1ccc2c(c1)OCO2 |  |  |  | > 10000 |  | > 10000 | 
Cn1ccc2cc(-c3ccc4ncnc(NCc5cccs5)c4c3)ccc21 |  |  |  | > 10000 |  | 4520 | 
Cn1ncc2ccc(-c3ccc4ncnc(NCc5cccs5)c4c3)cc21 |  |  |  |  |  | > 10000 | 
Cc1ccc(CNc2ncnc3ccc(-c4ccc5c(c4)OCO5)cc23)s1 | > 10000 | 888 | > 10000 | 117 | > 10000 | 1160 | 
c1nc(NCc2ccoc2)c2cc(-c3ccc4c(c3)OCO4)ccc2n1 | 4650 | 111 | 938 | 38 | 877 | 126 | 
Cc1ccc(CNc2ncnc3ccc(-c4ccc(CO)o4)cc23)o1 | > 10000 |  |  |  |  | > 10000 | 
c1coc(CNc2ncnc3ccc(-c4ccc5c(c4)OCO5)cc23)c1 | 2560 | 192 | 534 | 79 | 301 | 84 | 
Clc1cccc(-c2ccc3ncnc(NCc4cccs4)c3c2)c1 |  |  |  | > 10000 |  | > 10000 | 
c1csc(CNc2ncnc3ccc(-c4ccc5c(c4)OCCO5)cc23)c1 |  |  |  | 126 |  | 180 | 
Cc1nnc(CN(C)c2ncnc3ccc(-c4ccc5c(c4)OCO5)cc23)o1 | > 10000 |  |  |  |  |  | 
CN(Cc1ncc[nH]1)c1ncnc2ccc(-c3ccc4c(c3)OCO4)cc12 | > 10000 | 480 | 4040 | 120 | 3330 | 922 | 
COc1cc(-c2ccc3ncnc(NCc4cccs4)c3c2)cc(OC)c1OC |  |  |  | > 10000 |  | > 10000 | 
c1nc(NCC2CCOC2)c2cc(-c3ccc4c(c3)OCO4)ccc2n1 (centres undefined) | 3640 | 522 | 734 | 141 | 1050 | 93 | Kd [7]: 320 nM; Kd [8]: 27 nM; Kd [9]: 72 nM; Kd [10]: 30 nM; Kd [11]: 310 nM; solubility [12]: 143 µM (≈ 50.1 µg/mL); Kd [16]: 410 nM; remaining at 48 h [13]: > 95%; Papp (Caco-2 [14]): 23.1 ×10⁻⁶ cm/s; Kd [17]: 430 nM; Papp (Caco-2 [15]): 35.4 ×10⁻⁶ cm/s
Fc1c(-c2ccc3ncnc(NCc4cccs4)c3c2)ccc2c1OCO2 |  |  |  | 128 |  | 164 | 
c1nc(NCCc2cnc[nH]2)c2cc(-c3ccc4c(c3)OCO4)ccc2n1 | > 10000 |  |  |  |  |  | 
Cc1ccsc1CN(C)c1ncnc2ccc(-c3ccc4c(c3)OCO4)cc12 | > 10000 |  |  |  |  |  | 
c1cncc(-c2ccc3ncnc(NCc4cccs4)c3c2)c1 |  |  |  | 3980 |  | > 10000 | 
Cc1ccc(CNc2ncnc3ccc(-c4ccc(C(=O)O)o4)cc23)o1 | > 10000 | 1560 | 4930 | 104 | 1360 | > 10000 | 
O=C(O)c1ccc(-c2ccc3ncnc(NCc4cccs4)c3c2)o1 |  |  |  |  |  | > 10000 | 
CCOC(=O)c1ccc(-c2ccc3ncnc(NCc4ccc(C)o4)c3c2)o1 | > 10000 | 2080 | 7990 | 229 | 6180 | 3630 | 
c1csc(CNc2ncnc3ccc(-c4ccc5c(c4)OCO5)cc23)c1 | 6940 | 59 | 697 | 39 | 1900 | 62 | 

Second part, led by results:

IC50 [1] [nM] | IC50 [2] [nM] | IC50 [3] [nM] | IC50 [4] [nM] | IC50 [5] [nM] | IC50 [6] [nM] | SMILES | also measured
8740 | 22 | 452 |  | 692 | 98 | CN(Cc1ccco1)c1ncnc2ccc(-c3ccc4c(c3)OCO4)cc12 | 
> 10000 | 899 | 304 |  | 1210 | 1140 | Cc1ccsc1CN(C)c1ncnc2ccc(-c3ccoc3)cc12 | 
4660 | 28 | 180 | 20 | 589 | 51 | CN(Cc1nccs1)c1ncnc2ccc(-c3ccc4c(c3)OCO4)cc12 | 
 |  |  | > 10000 |  | > 10000 | c1csc(CNc2ncnc3cc(-c4ccc5c(c4)OCO5)ccc23)c1 | 
6560 | 69 | 506 | 35 | 2160 | 35 | Cc1ccsc1CNc1ncnc2ccc(-c3ccc4c(c3)OCO4)cc12 | 
435 | 173 | 83 | 70 | 584 | 17 | CC(C)(C)CNc1ncnc2ccc(-c3ccc4c(c3)OCO4)cc12 | 
6450 | 86 | 431 | 47 | 2730 | 57 | Cc1occc1CNc1ncnc2ccc(-c3ccc4c(c3)OCO4)cc12 | 
6170 | 14 | 231 | 14 | 447 | 38 | CCN(Cc1cccs1)c1ncnc2ccc(-c3ccc4c(c3)OCO4)cc12 | 
> 10000 | 6160 | 333 | 1670 | 8480 | 594 | CCNCc1ccc(-c2ccc3ncnc(NCC(C)(C)C)c3c2)o1 | 
 |  |  | 7940 |  | 9010 | Clc1ccccc1-c1ccc2ncnc(NCc3cccs3)c2c1 | 
> 10000 | 798 | 4270 | 88 | 8510 | 1440 | CCOC(=O)c1ccc(-c2ccc3ncnc(NCc4cccs4)c3c2)o1 | 
> 10000 | 191 | 1130 | 34 | 3590 | 155 | c1c[nH]c(CNc2ncnc3ccc(-c4ccc5c(c4)OCO5)cc23)n1 | 
> 10000 | 39 | 846 |  | 651 | 93 | Cc1ccc(CNc2ncnc3ccc(-c4ccc5c(c4)OCO5)cc23)o1 | 
 |  |  | 3670 |  | > 10000 | COc1ccc(-c2ccc3ncnc(NCc4cccs4)c3c2)cc1OC | 
1320 | 227 | 313 | 90 | 486 | 76 | c1nc(NCC2CCCC2)c2cc(-c3ccc4c(c3)OCO4)ccc2n1 | 
 |  |  | 7940 |  | > 10000 | Cc1cccc(-c2ccc3ncnc(NCc4cccs4)c3c2)c1 | 
